From US20060116390A1, “Hepatitis c virus inhibitors” (priority 2003, published 2006)
Read-outs that look alike come from different tables or passages of the source.

Test system: HCV proteins in Rep5.1 cells (replicon cell line)
Test: Inhibitory activity of HCV: cell-based ELISA in replicon cell line Rep5.1 (decrease of HCV proteins)
Design: species or system hepatitis C virus
Conditions: Rep5.1 cells, 72 hours with drug
Method in brief: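 Rep5.1 replicon cells (5000/well, DMEM-10 with 500 μg/ml G418) were given serially diluted drug 4 h after seeding. After 72 h, cells were fixed in methanol/acetone and HCV proteins detected by cell-based ELISA using replicon-specific patient plasma antibodies. IC50 is the concentration giving 50% protein decrease versus the no-drug control.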

[1] = Hepatitis C virus, 72 h, concentration at which 50% of HCV proteins was decreased, Table 2, read-out: IC50
[2] = Hepatitis C virus, 72 h, decrease of HCV proteins measured by HCV antibody, Table 1, read-out: Level (IC50 values classified)
[3] = concentration at which 50% of HCV proteins was decreased, Table 2, read-out: IC50

| SMILES | IC50 [1] | IC50 [2] | IC50 [3] |
| --- | --- | --- | --- |
| CC1=C(C(=O)OCc2noc(C)n2)CNC(=S)N1 [30′, 6-methyl-2-thioxo-1,2,3,4-tetrahydro-pyrimidine-5-carboxylic acid 5-methyl-[1,2,4]oxadiazol-3-ylmethyl ester] | > 100000 nM | > 20000 nM |  |
| COc1ccc(Br)cc1COC(=O)C1=C(C)NC(=S)NC1 [Compound 185, 6-methyl-2-thioxo-1,2,3,4-tetrahydro-pyrimidine-5-carboxylic acid 5-bromo-2-methoxy-benzyl ester] | 400 nM | < 1000 nM |  |
| C#CCCCOC(=O)C1=C(C)NC(=S)NC1 [Compound 130, 6-methyl-2-thioxo-1,2,3,4-tetrahydro-pyrimidine-5-carboxylic acid pent-4-inyl ester] |  |  | 35000 nM |
| CC1=C(C(=O)OCc2sccc2C)CNC(=S)N1 [Compound 202, 6-methyl-2-thioxo-1,2,3,4-tetrahydro-pyrimidine-5-carboxylic acid 3-methyl-thiophen-2-ylmethyl ester] | 9000 nM | 1000 to 10000 nM |  |
| CC1=C(C(=O)OC2CCc3c(Cl)sc(Cl)c32)CNC(=S)N1 (centres unmarked) [12′, 6-methyl-2-thioxo-1,2,3,4-tetrahydro-pyrimidine-5-carboxylic acid 1,3-dichloro-5,6-dihydro-4H-cyclopenta[c]thiophen-4-yl ester] | < 400 nM | < 1000 nM |  |
| CCCN(CCC)c1ccc(CCOC(=O)C2=C(C)NC(=S)NC2CO)cc1[N+](=O)[O-] (centres unmarked) [93″, 4-Hydroxymethyl-6-methyl-2-thioxo-1,2,3,4-tetrahydro-pyrimidine-5-carboxylic acid 2-(4-dipropylamino-3-nitro-phenyl)-ethyl ester] | 500 nM | < 1000 nM |  |
| CC1=C(C(=O)OCc2sc3sc(C)nc3c2C)CNC(=S)N1 [Compound 216, 6-methyl-2-thioxo-1,2,3,4-tetrahydro-pyrimidine-5-carboxylic acid 2,6-dimethyl-thieno[3,2-d]thiazol-5-ylmethyl ester] | 5000 nM | 1000 to 10000 nM |  |
| CC1=C(C(=O)OCc2ccc3c(c2)OCO3)CNC(=S)N1 [Compound 9, 6-methyl-2-thioxo-1,2,3,4-tetrahydro-pyrimidine-5-carboxylic acid benzo[1,3]dioxol-5-ylmethyl ester] | 4000 nM | 1000 to 10000 nM |  |
| CC1=C(C(=O)OCc2cc(C)cc(C)c2)CNC(=S)N1 [Compound 82, 6-methyl-2-thioxo-1,2,3,4-tetrahydro-pyrimidine-5-carboxylic acid 3,5-dimethyl-benzyl ester] | 300 nM | < 1000 nM |  |
| CC1=C(C(=O)OCC2CCCCC2)CNC(=S)N1 [Compound 29, 6-methyl-2-thioxo-1,2,3,4-tetrahydro-pyrimidine-5-carboxylic acid cyclohexylmethyl ester] | 300 nM | < 1000 nM |  |
| CC1=C(C(=O)OCCc2cn(C)c3ccccc23)CNC(=S)N1 [Compound 165, 6-methyl-2-thioxo-1,2,3,4-tetrahydro-pyrimidine-5-carboxylic acid 2-(1-methyl-1H-indol-3-yl)-ethyl ester] | 1400 nM | 1000 to 10000 nM |  |
| CC1=C(C(=O)OCCCc2cccs2)C(CO)NC(=S)N1 (centres unmarked) [4″, 4-hydroxymethyl-6-methyl-2-thioxo-1,2,3,4-tetrahydro-pyrimidine-5-carboxylic acid 3-thiophen-2-yl-propyl ester] | 2500 nM | 1000 to 10000 nM |  |
| CC1=C(C(=O)OCCc2ccsc2)C2(CCCC2)NC(=S)N1 [29′, 9-methyl-7-thioxo-6,8-diaza-spiro[4.5]dec-9-ene-10-carboxylic acid 2-thiophen-3-yl-ethyl ester] | 12000 nM | 10000 to 20000 nM |  |
| CC1=C(C(=O)OCCCc2cccs2)CNC(=S)N1 [9′, 6-methyl-2-thioxo-1,2,3,4-tetrahydro-pyrimidine-5-carboxylic acid 3-thiophen-2-yl-propyl ester] | < 400 nM | < 1000 nM |  |
| CSCCCOC(=O)C1=C(C)NC(=S)NC1CF (centres unmarked) [63′, 4-fluoromethyl-6-methyl-2-thioxo-1,2,3,4-tetrahydro-pyrimidine-5-carboxylic acid 3-methylsulfanyl-propyl ester] | > 100000 nM | > 20000 nM |  |
| CC1=C(C(=O)OCCCCCCCCc2ccccc2)CNC(=S)N1 [Compound 33, 6-methyl-2-thioxo-1,2,3,4-tetrahydro-pyrimidine-5-carboxylic acid 8-phenyl-octyl ester] | < 500 nM | < 1000 nM |  |
| O=C(OCc1ccccc1)C1=C(Cc2ccccc2)NC(=S)NC1 [Compound 18, 6-benzyl-2-thioxo-1,2,3,4-tetrahydro-pyrimidine-5-carboxylic acid benzyl ester] | 5000 nM | 1000 to 10000 nM |  |
| COC(=O)CCCCCCCCCOC(=O)C1=C(C)NC(=S)NC1 [Compound 198, 6-methyl-2-thioxo-1,2,3,4-tetrahydro-pyrimidine-5-carboxylic acid 9-methoxycarbonyl-nonyl ester] | 10000 nM | 1000 to 10000 nM |  |

| SMILES | IC50 [1] | IC50 [2] | IC50 [3] |
| --- | --- | --- | --- |
| CC1=C(C(=O)OCc2cc(Cl)cc(Cl)c2)C(CO)NC(=S)N1 (centres unmarked) [34″, 4-hydroxymethyl-6-methyl-2-thioxo-1,2,3,4-tetrahydro-pyrimidine-5-carboxylic acid 3,5-dichloro-benzyl ester] | 2600 nM | 1000 to 10000 nM |  |
| CC1=C(C(=O)OCC2CCCCC2)C(CF)NC(=S)N1 (centres unmarked) [51′, 4-fluoromethyl-6-methyl-2-thioxo-1,2,3,4-tetrahydro-pyrimidine-5-carboxylic acid cyclohexylmethyl ester] | 5400 nM | 1000 to 10000 nM |  |
| CCc1ccc(CCCOC(=O)C2=C(C)NC(=S)NC2CO)o1 (centres unmarked) [19″, 4-hydroxymethyl-6-methyl-2-thioxo-1,2,3,4-tetrahydro-pyrimidine-5-carboxylic acid 3-(5-ethyl-furan-2-yl)-propyl ester] | 1400 nM | 1000 to 10000 nM |  |
| COc1ccc(Cl)cc1COC(=O)C1=C(C)NC(=S)NC1CF (centres unmarked) [81′, 4-fluoromethyl-6-methyl-2-thioxo-1,2,3,4-tetrahydro-pyrimidine-5-carboxylic acid 5-chloro-2-methoxy-benzyl ester] |  |  | 2400 nM |
| COc1ccccc1COC(=O)C1=C(C)NC(=S)NC1 [Compound 65, 6-methyl-2-thioxo-1,2,3,4-tetrahydro-pyrimidine-5-carboxylic acid 2-methoxy-benzyl ester] | 1000 nM | < 1000 nM |  |
| C=CCOC(=O)C1=C(C)NC(=S)NC1 [Compound 16, 6-methyl-2-thioxo-1,2,3,4-tetrahydro-pyrimidine-5-carboxylic acid allyl ester] | 74000 nM | > 20000 nM |  |
| CC1=C(C(=O)OCCc2ccc(Cl)cc2)C(CO)NC(=S)N1 (centres unmarked) [35″, 4-hydroxymethyl-6-methyl-2-thioxo-1,2,3,4-tetrahydro-pyrimidine-5-carboxylic acid 2-(4-chloro-phenyl)-ethyl ester] | 1600 nM | 1000 to 10000 nM |  |
| CC1=C(C(=O)OCc2ccc(S(C)(=O)=O)cc2)CNC(=S)N1 [Compound 74, 6-methyl-2-thioxo-1,2,3,4-tetrahydro-pyrimidine-5-carboxylic acid 4-methanesulfonyl-benzyl ester] | > 100000 nM | > 20000 nM |  |
| CC1=C(C(=O)OCc2ccc(N(C)C)cc2)CNC(=S)N1 [Compound 79, 6-methyl-2-thioxo-1,2,3,4-tetrahydro-pyrimidine-5-carboxylic acid 4-dimethylamino-benzyl ester] | 1300 nM | 1000 to 10000 nM |  |
| CC1=C(C(=O)OCc2c(C)cc(C)cc2C)CNC(=S)N1 [Compound 142, 6-methyl-2-thioxo-1,2,3,4-tetrahydro-pyrimidine-5-carboxylic acid 2,4,6-trimethyl-benzyl ester] | 6000 nM | 1000 to 10000 nM |  |
| CC1=C(C(=O)OCCCc2ccccc2)C(CF)NC(=S)N1 (centres unmarked) [31′, 4-fluoromethyl-6-methyl-2-thioxo-1,2,3,4-tetrahydro-pyrimidine-5-carboxylic acid 3-phenyl-propyl ester] | 400 nM | < 1000 nM |  |
| O=C(OCCc1ccsc1)C1=C(CF)NC(=S)NC1 [57′, 6-fluoromethyl-2-thioxo-1,2,3,4-tetrahydro-pyrimidine-5-carboxylic acid 2-thiophen-3-yl-ethyl ester] | 10000 nM | 1000 to 10000 nM |  |
| CC1=C(C(=O)OCCCc2ccsc2)C(CO)NC(=S)N1 (centres unmarked) [6″, 4-hydroxymethyl-6-methyl-2-thioxo-1,2,3,4-tetrahydro-pyrimidine-5-carboxylic acid 3-thiophen-3-yl-propyl ester] | 1900 nM | 1000 to 10000 nM |  |
| CC1=C(C(=O)OCC2CC2)CNC(=S)N1 [Compound 46, 6-methyl-2-thioxo-1,2,3,4-tetrahydro-pyrimidine-5-carboxylic acid cyclopropylmethyl ester] | 30000 nM | 10000 to 20000 nM |  |
| CC1=C(C(=O)OCCc2cccc(Cl)c2)C(COC(=O)OCCOC(=O)c2ccccc2)NC(=S)N1 (centres unmarked) [76″, 4-(2-benzoyloxy-ethoxycarbonyloxymethyl)-6-methyl-2-thioxo-1,2,3,4-tetrahydro-pyrimidine-5-carboxylic acid 2-(3-chloro-phenyl)-ethyl ester] | 900 nM | < 1000 nM |  |
| COc1ccc(Cl)cc1COC(=O)C1=C(C)NC(=S)NC1CF (centres unmarked) [36′, 4-fluoromethyl-6-methyl-2-thioxo-1,2,3,4-tetrahydro-pyrimidine-5-carboxylic acid 5-chloro-2-methoxy-benzyl ester] | 1700 nM | 1000 to 10000 nM |  |
| COc1ccc(CCOC(=O)C2=C(C)NC(=S)NC2CO)cc1C (centres unmarked) [69″, 4-hydroxymethyl-6-methyl-2-thioxo-1,2,3,4-tetrahydro-pyrimidine-5-carboxylic acid 2-(4-methoxy-3-methyl-phenyl)-ethyl ester] | 800 nM | < 1000 nM |  |
